Key:
[1] = assay type: physicochemical
Procedure: Without wishing to be bound, it is believed that separation is more favored at higher temperatures at least in part due to factors including conformational changes as well as solubility differences that are a function of temperature. At room temperature, the solubility of Reb B in a 94 weight percent ethanol solution saturated with Reb A is about 0.3 g per 100 g of solvent, and the solubility of Reb D is about 0.01 g per 100 g. At 100° C., concentrations of Reb D as high as 0.2 g/100 g are observed, and concentrations of Reb B as high as 0.5 g/100 g are observed. The solubility of Reb A in 94 wt % ethanol varies to a much smaller extent.

[2] = relative to sucrose; background statement; cited from earlier work

concentrations observed in solution [1]	solubility [1]	Molecule	sweetness, times the sweetness of sucrose [2]
≤ 0.2 g/100 g	about 0.01 g per 100 g of solvent	C=C1C[C@@]23CC[C@H]4[C@@](C)(CCC[C@@]4(C)C(=O)O[C@@H]4O[C@H](CO)[C@@H](O)[C@H](O)[C@H]4O[C@@H]4O[C@H](CO)[C@@H](O)[C@H](O)[C@H]4O)[C@@H]2CC[C@]1(O[C@@H]1O[C@H](CO)[C@@H](O)[C@H](O[C@@H]2O[C@H](CO)[C@@H](O)[C@H](O)[C@H]2O)[C@H]1O[C@@H]1O[C@H](CO)[C@@H](O)[C@H](O)[C@H]1O)C3 [Reb D, rebaudioside D]	–
≤ 0.5 g/100 g	about 0.3 g per 100 g of solvent	rebaudioside B [Reb B]	–
–	–	C=C1C[C@@]23CC[C@H]4[C@@](C)(CCC[C@@]4(C)C(=O)O[C@@H]4O[C@H](CO)[C@@H](O)[C@H](O)[C@H]4O)[C@@H]2CC[C@]1(O[C@@H]1O[C@H](CO)[C@@H](O)[C@H](O[C@@H]2O[C@H](CO)[C@@H](O)[C@H](O)[C@H]2O)[C@H]1O[C@@H]1O[C@H](CO)[C@@H](O)[C@H](O)[C@H]1O)C3 [Rebaudioside A, rebaudioside A]	250-450 times

From patent US9024012B2, “Methods to treat mixtures of glycosides to obtain one or more of these glycosides in more pure form” (Cargill, Incorporated, priority 2010, dated 2015)
